Assay results published in patent US11072741B2, “Optically anisotropic layer, method for producing the optically anisotropic layer, a laminate, polarizing plate, display device, liquid crystal compound, method for producing the liquid crystal compound, and carboxylic acid compound” (FUJIFILM Corporation, priority 2014, dated 2021).

Tests used:
[1] = Measurement and evaluation of solubility in MEK and CPN; type: physicochemical; details: for Solubility CPN wt %: cyclopentanone; for Solubility CPN wt % / Solubility MEK wt %: room temperature, visual observation, 5 wt % increments; for Solubility MEK wt %: methyl ethyl ketone
Procedure: Solubility measurements of the synthesized liquid crystal compounds were conducted by the following method. 50 mg of each compound was weighted into a 1.5 mL sample bottle, and solvent was added until the solid component became 40 wt % (75 mg). The solubility was determined to be 40 wt % if clear under visual observation after shaking well manually at room temperature. If undissolved residue was present, solvent was added such that the solid component became 35 wt % (+18 mg). The solubility was determined to be 35 wt % if clear under visual observation after shaking well manually at room temperature. If undissolved residue was present, solvent was added such that the solid component became 30 wt %. Similar operations were performed in increments of 5 wt %, and repeated until the solid component became 5 wt %. If undissolved residue was present, the solubility was determined to be less than 5 wt % (<5 wt %), and measurements were completed. MEK (methyl ethyl ketone) and CPN (cyclopentanone) were utilized as solvents for measuring solubility.
The measured values of solubility were evaluated. The evaluations were conducted by using solubility of a compound of a Comparative Example having Ar (the aromatic ring at the center of General Formula 1) in common with the Examples and a side chain portion represented by Formula (Ia) as a reference, in a manner similar to that in the evaluation of the phase transition temperature. Evaluations of A through C were assigned according to the degree of improvement in solubility from the reference solubility.
(§1) For example, compound (I-1) and (I-2) were compared to Comparative Compound (Ia-1), and Compound (III-3) was compared to Comparative Compound (IIIa-3). The evaluation was carried out based on the following criteria.
A: solubility improved twofold or greater in plural solvents or a single solvent
B: solubility was the same or improved up to twofold in plural solvents or a single solvent
C: no improvement in solubility in plural solvents or a single solvent

[2] = Evaluation of phase transition temperature by polarizing microscope; type: physicochemical; details: for TNi(° C.) Isotropic Phase Transition Point / Tsm—N(° C.) Sm—N Transition Point: during temperature increase
Excerpt: Here, the temperature at which the compound transitions from the smectic phase to the nematic phase may be easily measured by observation of the composition employing polarized light microscopy. For example, in the nematic phase, a schlieren texture specific to the nematic phase is observed, while the texture transitions to a focal conic fan texture in a smectic A phase. Therefore, the phase transition temperature can be measured by observing the textures with a polarizing microscope while increasing or decreasing the temperature.
The phase transition temperatures of the synthesized liquid crystal compounds of the Examples and Comparative Examples were observed using a polarizing microscope to evaluate the degrees of temperature decrease. Specifically, the compounds of the Examples were compared to the compounds of the Comparative Examples, which have different structures for the side chain portions thereof. That is, the phase transition temperature of a compound of a Comparative Example having Ar (the aromatic ring at the center of General Formula 1) in common with the Examples and a side chain portion represented by Formula (Ia) below was used as a reference. Evaluations of A through C were assigned according to the degree of temperature decrease from the reference phase transition temperature.
as §1
A: decrease in melting point or Sm-N (smectic-nematic) transition temperature is 20° C. or greater
B: decrease in melting point or Sm-N (smectic-nematic) transition temperature is 5° C. or greater and less than 20° C.
C: decrease in melting point or Sm-N (smectic-nematic) transition temperature is less than 5° C.
With respect to the phase transition temperature, the numerical value in parentheses represents the numerical value during temperature decrease, and other numerical values represent a numerical value during temperature increase.

[3] = versus comparative compound with the same Ar and side chain portion of Formula (Ia)

C=CC(=O)OCCOC(=O)CCC(=O)OCCc1ccc(OC(=O)[C@H]2CC[C@H](C(=O)Oc3ccc(OC(=O)[C@H]4CC[C@H](C(=O)Oc5ccc(CCOC(=O)CCC(=O)OCCOC(=O)C=C)cc5)CC4)c4sc(=S)sc34)CC2)cc1 [VI-7]
melting point: 123 °C
Solubility CPN wt % [1]: 25 wt %
Solubility MEK wt % [1]: 15 wt %
Solubility Evaluation [1, 3]: B (solubility was the same or improved up to twofold in plural solvents or a single solvent)
TNi(° C.) Isotropic Phase Transition Point [2]: 145 °C
Tsm—N(° C.) Sm—N Transition Point [2]: 137 °C
Phase Transition Temperature Evaluation of Decrease [2, 3]: A (decrease in melting point or Sm-N (smectic-nematic) transition temperature is 20 °C or greater)

C=CC(=O)OCCCCCCOc1ccc(OC(=O)[C@H]2CC[C@H](C(=O)Oc3ccc(OC(=O)[C@H]4CC[C@H](C(=O)Oc5ccc(OCCCCCCOC(=O)C=C)cc5)CC4)c(/C=N/Nc4nc5ccccc5s4)c3)CC2)cc1 [VIa-1]
melting point: 163 °C
Solubility CPN wt % [1]: 20 wt %
Solubility MEK wt % [1]: 10 wt %
TNi(° C.) Isotropic Phase Transition Point [2]: 279 °C

C=CC(=O)OCCCCCCOc1ccc(OC(=O)[C@H]2CC[C@H](C(=O)Oc3ccc(OC(=O)[C@H]4CC[C@H](C(=O)Oc5ccc(OCCCCCCOC(=O)C=C)cc5)CC4)c4sc(=S)sc34)CC2)cc1 [VIa-7]
melting point: 124 °C
Solubility CPN wt % [1]: 20 wt %
Solubility MEK wt % [1]: <10 wt %
TNi(° C.) Isotropic Phase Transition Point [2]: 247 °C
Tsm—N(° C.) Sm—N Transition Point [2]: 164 °C
